# Results taken from PubChem BioAssay (NCI).
#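 Assay format: 96-well plates, 48-hour exposure. At the GI50, growth is halved. TGI marks complete inhibition of growth.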
# Experiments:
# Experiment in all cases: inhibition of tumour cell growth, NCI panel, 48 h
# TK-10 renal = system: TK-10 renal
# PC-3 prostate = system: PC-3 prostate
# HCT-15 colon = system: HCT-15 colon
# CCRF-CEM leukemia = system: CCRF-CEM leukemia
# HL-60(TB) leukemia = system: HL-60(TB) leukemia
# HCC-2998 colon = system: HCC-2998 colon
# U251 CNS = system: U251 CNS
# T-47D breast = system: T-47D breast
# 786-0 renal = system: 786-0 renal
# OVCAR-4 ovarian = system: OVCAR-4 ovarian
# SNB-19 CNS = system: SNB-19 CNS
# HOP-62 NSCLC = system: HOP-62 NSCLC
# RXF 393 renal = system: RXF 393 renal
# NCI-H23 lung = system: NCI-H23 lung
# OVCAR-5 ovarian = system: OVCAR-5 ovarian
# KM12 colon = system: KM12 colon
# RPMI-8226 leukemia = system: RPMI-8226 leukemia
# A498 renal = system: A498 renal
# NCI-H460 lung = system: NCI-H460 lung
# DU-145 prostate = system: DU-145 prostate
# NCI-H522 lung = system: NCI-H522 lung
# LOX IMVI melanoma = system: LOX IMVI melanoma
# BT-549 breast = system: BT-549 breast
# K-562 leukemia = system: K-562 leukemia
# MCF7 breast = system: MCF7 breast
# SF-295 CNS = system: SF-295 CNS
# SN12C renal = system: SN12C renal
# SR leukemia = system: SR leukemia
# MDA-MB-435 = system: MDA-MB-435
# MALME-3M melanoma = system: MALME-3M melanoma
# SK-OV-3 ovarian = system: SK-OV-3 ovarian
# SK-MEL-5 melanoma = system: SK-MEL-5 melanoma
# MOLT-4 leukemia = system: MOLT-4 leukemia
# UACC-257 melanoma = system: UACC-257 melanoma
# OVCAR-3 ovarian = system: OVCAR-3 ovarian
# UO-31 renal = system: UO-31 renal
# UACC-62 melanoma = system: UACC-62 melanoma
# HS 578T breast = system: HS 578T breast
# A549 NSCLC = system: A549 NSCLC
# SNB-75 CNS = system: SNB-75 CNS
# SK-MEL-28 melanoma = system: SK-MEL-28 melanoma
# CAKI-1 renal = system: CAKI-1 renal
# HT29 colon = system: HT29 colon
# SF-268 CNS = system: SF-268 CNS
# SK-MEL-2 melanoma = system: SK-MEL-2 melanoma
# COLO 205 colon = system: COLO 205 colon
# SW-620 colon = system: SW-620 colon
# NCI/ADR-RES ovarian = system: NCI/ADR-RES ovarian
# HCT-116 colon = system: HCT-116 colon
# ACHN renal = system: ACHN renal
# OVCAR-8 ovarian = system: OVCAR-8 ovarian
# NCI-H226 lung = system: NCI-H226 lung
# IGROV1 ovarian = system: IGROV1 ovarian
# HOP-92 NSCLC = system: HOP-92 NSCLC
structure (smiles),measurement,setting,value
COc1cc(Nc2cc(C)nc(N3CCN(c4ccnc5cc(Cl)ccc45)CC3)n2)cc(OC)c1,GI50,TK-10 renal,538 nM
same,TGI,TK-10 renal,41300 nM
same,GI50,PC-3 prostate,245 nM
same,TGI,PC-3 prostate,> 100000 nM
same,GI50,HCT-15 colon,56.1 nM
same,TGI,HCT-15 colon,> 100000 nM
same,GI50,CCRF-CEM leukemia,268 nM
same,TGI,CCRF-CEM leukemia,> 100000 nM
same,GI50,HL-60(TB) leukemia,240 nM
same,TGI,HL-60(TB) leukemia,20800 nM
same,GI50,HCC-2998 colon,222 nM
same,TGI,HCC-2998 colon,4220 nM
same,GI50,U251 CNS,268 nM
same,TGI,U251 CNS,> 100000 nM
same,GI50,T-47D breast,2360 nM
same,TGI,T-47D breast,> 100000 nM
same,GI50,786-0 renal,153 nM
same,TGI,786-0 renal,5820 nM
same,GI50,OVCAR-4 ovarian,128 nM
same,TGI,OVCAR-4 ovarian,> 100000 nM
same,GI50,SNB-19 CNS,318 nM
same,TGI,SNB-19 CNS,> 100000 nM
same,GI50,HOP-62 NSCLC,194 nM
same,TGI,HOP-62 NSCLC,14300 nM
same,GI50,RXF 393 renal,35.4 nM
same,TGI,RXF 393 renal,286 nM
same,GI50,NCI-H23 lung,302 nM
same,TGI,NCI-H23 lung,> 100000 nM
same,GI50,OVCAR-5 ovarian,487 nM
same,TGI,OVCAR-5 ovarian,> 100000 nM
same,GI50,KM12 colon,32.3 nM
same,TGI,KM12 colon,4730 nM
same,GI50,RPMI-8226 leukemia,313 nM
same,TGI,RPMI-8226 leukemia,3510 nM
same,GI50,A498 renal,84.2 nM
same,TGI,A498 renal,658 nM
same,GI50,NCI-H460 lung,180 nM
same,TGI,NCI-H460 lung,> 32300 nM
same,GI50,DU-145 prostate,318 nM
same,GI50,NCI-H522 lung,50.1 nM
same,TGI,NCI-H522 lung,651 nM
same,GI50,LOX IMVI melanoma,133 nM
same,TGI,LOX IMVI melanoma,2820 nM
same,GI50,BT-549 breast,498 nM
same,TGI,BT-549 breast,6610 nM
same,GI50,K-562 leukemia,108 nM
same,TGI,K-562 leukemia,> 61900 nM
same,GI50,MCF7 breast,32.4 nM
same,TGI,MCF7 breast,> 100000 nM
same,GI50,SF-295 CNS,49.6 nM
same,TGI,SF-295 CNS,439 nM
same,GI50,SN12C renal,309 nM
same,TGI,SN12C renal,> 100000 nM
same,GI50,SR leukemia,169 nM
same,TGI,SR leukemia,3300 nM
same,GI50,MDA-MB-435,30.6 nM
same,TGI,MDA-MB-435,105 nM
same,GI50,MALME-3M melanoma,5080 nM
same,TGI,MALME-3M melanoma,> 100000 nM
same,GI50,SK-OV-3 ovarian,253 nM
same,TGI,SK-OV-3 ovarian,> 78900 nM
same,GI50,SK-MEL-5 melanoma,77.8 nM
same,TGI,SK-MEL-5 melanoma,351 nM
same,GI50,MOLT-4 leukemia,400 nM
same,TGI,MOLT-4 leukemia,> 40900 nM
same,GI50,UACC-257 melanoma,907 nM
same,TGI,UACC-257 melanoma,> 100000 nM
same,GI50,OVCAR-3 ovarian,66.2 nM
same,TGI,OVCAR-3 ovarian,437 nM
same,GI50,UO-31 renal,139 nM
same,TGI,UO-31 renal,> 100000 nM
same,GI50,UACC-62 melanoma,95.5 nM
same,TGI,UACC-62 melanoma,> 71700 nM
same,GI50,HS 578T breast,176 nM
same,TGI,HS 578T breast,> 100000 nM
same,GI50,A549 NSCLC,227 nM
same,TGI,A549 NSCLC,> 39700 nM
same,GI50,SNB-75 CNS,142 nM
same,TGI,SNB-75 CNS,1060 nM
same,GI50,SK-MEL-28 melanoma,99.3 nM
same,TGI,SK-MEL-28 melanoma,> 100000 nM
same,GI50,CAKI-1 renal,198 nM
same,TGI,CAKI-1 renal,> 100000 nM
same,GI50,HT29 colon,266 nM
same,TGI,HT29 colon,2080 nM
same,GI50,SF-268 CNS,377 nM
same,TGI,SF-268 CNS,> 100000 nM
same,GI50,SK-MEL-2 melanoma,186 nM
same,TGI,SK-MEL-2 melanoma,> 100000 nM
same,GI50,COLO 205 colon,202 nM
same,TGI,COLO 205 colon,537 nM
same,GI50,SW-620 colon,146 nM
same,TGI,SW-620 colon,> 100000 nM
same,GI50,NCI/ADR-RES ovarian,155 nM
same,TGI,NCI/ADR-RES ovarian,1240 nM
same,GI50,HCT-116 colon,103 nM
same,TGI,HCT-116 colon,5450 nM
same,GI50,ACHN renal,72.7 nM
same,TGI,ACHN renal,> 100000 nM
same,GI50,OVCAR-8 ovarian,337 nM
same,TGI,OVCAR-8 ovarian,> 79100 nM
same,GI50,NCI-H226 lung,362 nM
same,GI50,IGROV1 ovarian,267 nM
same,TGI,IGROV1 ovarian,> 100000 nM
same,GI50,HOP-92 NSCLC,97.3 nM
same,TGI,HOP-92 NSCLC,4680 nM
